From ChEMBL document CHEMBL3414534, “Water-soluble isoindolo[2,1-a]quinoxalin-6-imines: in vitro antiproliferative activity and molecular mechanism(s) of action” (Eur J Med Chem, 2015)
In brackets after ≈: the same amount, converted by molar mass. Several values for one entry are separate records, joined by “and”; a condition that tells them apart may be missing. Equal values may be shown once. Activity calls are given as the source filed them. The rule behind the calls is not given here.

Experiments:
[1] = Solubility in water at 25 degC sonicated for 10 mins by HPLC method; format: physicochemical
[2] = Binding affinity to double stranded DNA (unknown origin) assessed as change in melting temperature at 5 uM at pH 7.4 by fluorescence melting assay
Homo sapiens [3] = organism: Homo sapiens; experiment: Binding affinity to human telomeric DNA sequence assessed as change in melting temperature at 5 uM at pH 7.4 by fluorescence melting assay
[4] = Binding affinity to Pu24 DNA (unknown origin) assessed as change in melting temperature at 5 uM at pH 7.4 by fluorescence melting assay
[5] = Growth inhibition of human NCI60 cells; format: functional
Calf thymus DNA = experiment: Binding affinity to calf thymus double stranded DNA assessed as induction of modification of dichroic signal by CD spectroscopy; format: nucleic-acid assay; settings: Bos taurus
Homo sapiens [6] = organism: Homo sapiens; experiment: Binding affinity to human telomeric DNA sequence Tel22 assessed as induction of modification of dichroic signal at 0 to 16 uM at pH 7.4 by CD spectroscopy
U2OS [7] = experiment: Induction of cell cycle arrest in human U2OS cells assessed as accumulation at G2/M phase at cytotoxic IC50 level by propidium iodide staining based based cytofluorimetry; format: functional; settings: TDE = time-dependent effect
U2OS [8] = experiment: Induction of cell cycle arrest in human U2OS cells assessed as increase in accumulation at subG1 phase at cytotoxic IC50 level by propidium iodide staining based based cytofluorimetry; format: functional; settings: TDE = time-dependent effect
[9] = biological target: T1, DNA topoisomerase 1 (Homo sapiens) (UniProt P11387); experiment: Inhibition of human recombinant topoisomerase 1-dependent DNA cleavage using 751-bp BamHI-EcoRI fragment of SV40 DNA at 1 to 50 uM incubated for 30 mins by PAGE method
T1 sequence (whole entry): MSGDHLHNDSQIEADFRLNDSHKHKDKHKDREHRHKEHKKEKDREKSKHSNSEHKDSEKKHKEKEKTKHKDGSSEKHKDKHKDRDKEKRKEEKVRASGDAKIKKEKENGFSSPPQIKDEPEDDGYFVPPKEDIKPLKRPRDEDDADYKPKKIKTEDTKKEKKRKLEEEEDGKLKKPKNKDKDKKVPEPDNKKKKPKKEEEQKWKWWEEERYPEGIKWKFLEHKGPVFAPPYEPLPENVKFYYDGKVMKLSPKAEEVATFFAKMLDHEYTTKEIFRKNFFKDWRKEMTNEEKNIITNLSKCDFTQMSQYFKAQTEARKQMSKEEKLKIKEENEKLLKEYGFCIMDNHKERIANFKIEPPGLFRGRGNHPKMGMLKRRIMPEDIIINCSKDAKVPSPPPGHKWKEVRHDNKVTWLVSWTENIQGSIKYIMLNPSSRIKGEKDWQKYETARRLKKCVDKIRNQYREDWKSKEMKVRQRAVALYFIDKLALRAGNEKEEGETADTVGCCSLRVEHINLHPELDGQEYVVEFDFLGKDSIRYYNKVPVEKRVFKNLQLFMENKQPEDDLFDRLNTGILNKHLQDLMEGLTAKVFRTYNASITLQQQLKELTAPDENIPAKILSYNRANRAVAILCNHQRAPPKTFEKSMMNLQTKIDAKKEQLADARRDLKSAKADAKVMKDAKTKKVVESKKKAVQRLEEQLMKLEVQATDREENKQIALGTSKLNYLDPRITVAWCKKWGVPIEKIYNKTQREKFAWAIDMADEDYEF

U2OS [10] = experiment: Induction of telomere architecture perturbations in human U2OS cells assessed as displacement of hPOT1 from telomeres at cytotoxic IC50 level after 24 hrs by chromatin immunoprecipitation method; format: functional
U2OS [11] = experiment: Growth inhibition of human U2OS cells after 72 hrs by coulter counter method; format: functional, cell-based
Tubulin (Homo sapiens) = Tubulin (Homo sapiens) (UniProt P68371+Q9H4B7+P0DPH7+P68366+Q13509+Q71U36+P04350+Q3ZCM7+P07437+P68363+Q9BQE3+Q6PEY2+Q13885+Q9BVA1+Q9BUF5); experiment: Inhibition of tubulin polymerization in human U2OS cells at cytotoxic IC50 level after 72 hrs by Western blotting method; format: cell-based
U2OS [12] = experiment: Induction of apoptosis in human U2OS cells assessed as increase in caspase-3 catalytic activity at cytotoxic IC50 level after 72 hrs; format: functional
U2OS [13] = experiment: Induction of telomere architecture perturbations in human U2OS cells assessed as increase in DNA topoisomerase 1 binding to telomeric sequences at cytotoxic IC50 level after 12 hrs by chromatin immunoprecipitation method; format: functional
U2OS [14] = experiment: Induction of telomere architecture perturbations in human U2OS cells assessed as displacement of human DNA topoisomerase 1 from telomeres at cytotoxic IC50 level after 24 hrs by chromatin immunoprecipitation method; format: functional
U2OS [15] = experiment: Induction of telomere architecture perturbations in human U2OS cells assessed as displacement of hPOT1 from telomeres at cytotoxic IC50 level after 12 hrs by chromatin immunoprecipitation method; format: functional
U2OS [16] = experiment: Induction of telomere architecture perturbations in human U2OS cells assessed as displacement of TRF2 from telomeres at cytotoxic IC50 level after 24 hrs by chromatin immunoprecipitation method; format: functional
U2OS [17] = experiment: Induction of telomere architecture perturbations in human U2OS cells assessed as increase in DNA topoisomerase 1 binding to telomeric sequences at cytotoxic IC50 level after 6 hrs by chromatin immunoprecipitation method; format: functional
[18] = biological target: T1, DNA topoisomerase 1 (Homo sapiens); settings: 50 uM
Description: Inhibition of human recombinant topoisomerase 1-dependent DNA cleavage using 751-bp BamHI-EcoRI fragment of SV40 DNA at 50 uM incubated for 30 mins by PAGE method

SMILES | solubility at 10 min [1] [mM] | ΔTm [2] | ΔTm (Homo sapiens [3]) | ΔTm [4] | GI50 ([5]; Homo sapiens, NCI60) [µM] | GI50 [5] [µM] | further results
COc1ccc2cn3c4ccc(O)cc4[nH]c(=N)c3c2c1 | 22.4 (≈ 6260 µg/mL) | 0.2 °C | 1.9 °C | 0.2 °C | 12.3 |  | 
COc1cc2cn3c4ccc(O)cc4[nH]c(=N)c3c2cc1OC [listing 1 of 2 here] |  | 0.3 °C and 0.2 °C | 5.9 °C and 6.2 °C | 3.4 °C and 2.4 °C |  |  | Activity (Calf thymus DNA): Active; Activity (Homo sapiens [6]): Active; Activity (U2OS [7]): tde; Activity (U2OS [8]): tde; inhibition of DNA cleavage (qualitative) [9]: Active; Activity (U2OS [10]): inactive; growth inhibition (GI) (U2OS [11]): Active; tubulin polymerization inhibition (active/inactive) (Tubulin (Homo sapiens)): Active
CC(=O)O.COc1ccc2c(c1)[nH]c(=N)c1c3cc(OC)c(OC)cc3cn21 | 7.2 |  |  |  |  | < 9.55 | 
N=c1[nH]c2cc(Cl)c(Cl)cc2n2cc3ccccc3c12 |  | 0 °C | 0.3 °C | 1.1 °C |  |  | 
Cc1cc2[nH]c(=N)c3c4ccccc4cn3c2cc1C |  | 0.3 °C | 3.1 °C | 1.9 °C |  |  | 
N=c1[nH]c2cc(O)ccc2n2cc3c(F)cccc3c12 [listing 1 of 2 here] |  | 0 °C | 1 °C and 0.8 °C | 2 °C and 1 °C |  |  | inhibition of DNA cleavage (qualitative) [9]: Dose-dependent effect
CC(=O)O.COc1ccc2c(c1)cn1c3ccc(O)cc3[nH]c(=N)c21 | 10.9 |  |  |  |  | < 8.32 | 
CC(=O)O.COc1cc2cn3c4ccc(O)cc4[nH]c(=N)c3c2cc1OC | 14 |  |  |  |  | < 3.31 | fold change (FC) (U2OS [12]): 17; Activity (U2OS [13]): 77%; inhibition (INH) (U2OS [14]): 57%; Activity (U2OS [15]): -63%; Activity (U2OS [10]): -31%; Activity (U2OS [16]): -66%
COc1cc2cn3c4ccc(O)cc4[nH]c(=N)c3c2cc1OC [listing 2 of 2 here] | 24.5 (≈ 7580 µg/mL) |  |  |  | < 3.24 |  | fold change (FC) (U2OS [12]): 23; Activity (U2OS [13]): 309%; inhibition (INH) (U2OS [14]): 57%; Activity (U2OS [15]): -88%; Activity (U2OS [17]): 64%; Activity (U2OS [16]): -80%
Cc1cccc2c1[nH]c(=N)c1c3ccccc3cn21 |  | 0.2 °C | 1.8 °C | 1.5 °C |  |  | 
COc1ccc2c(c1)cn1c3ccc(O)cc3[nH]c(=N)c21 | 21.9 (≈ 6120 µg/mL) |  |  |  | 11 |  | 
COc1ccc2c(c1)[nH]c(=N)c1c3cccc(F)c3cn21 | 14.4 (≈ 4050 µg/mL) | 0.2 °C | 1.8 °C | 2.1 °C | 10.7 |  | 
CC(=O)O.N=c1[nH]c2cc(O)ccc2n2cc3c(F)cccc3c12 | 12.7 |  |  |  |  | 6.31 | 
COc1ccc2c(c1)[nH]c(=N)c1c3cc(OC)c(OC)cc3cn21 | 14.4 (≈ 4660 µg/mL) |  |  |  | > 15.5 |  | 
CCc1c2c(nc3ccc(O)cc13)-c1cc3c(c(=O)n1C2)COC(=O)[C@]3(O)CC |  |  |  |  |  |  | inhibition [18]: Active
N=c1[nH]c2cc(O)ccc2n2cc3c(F)cccc3c12 [listing 2 of 2 here] | 23 (≈ 6150 µg/mL) |  |  |  |  | 31.6 | 
